Experiment [1] has as its target T1, Zea mays bx8 glucosyl transferase (his tagged SEQ ID NO: 2) (Zea mays, UniProt Q8W2B7).
T1 construct: His tag (N); made in house; host or cells: E. coli BL21 (DE3), pET24a
T1 sequence (Q8W2B7 1-459): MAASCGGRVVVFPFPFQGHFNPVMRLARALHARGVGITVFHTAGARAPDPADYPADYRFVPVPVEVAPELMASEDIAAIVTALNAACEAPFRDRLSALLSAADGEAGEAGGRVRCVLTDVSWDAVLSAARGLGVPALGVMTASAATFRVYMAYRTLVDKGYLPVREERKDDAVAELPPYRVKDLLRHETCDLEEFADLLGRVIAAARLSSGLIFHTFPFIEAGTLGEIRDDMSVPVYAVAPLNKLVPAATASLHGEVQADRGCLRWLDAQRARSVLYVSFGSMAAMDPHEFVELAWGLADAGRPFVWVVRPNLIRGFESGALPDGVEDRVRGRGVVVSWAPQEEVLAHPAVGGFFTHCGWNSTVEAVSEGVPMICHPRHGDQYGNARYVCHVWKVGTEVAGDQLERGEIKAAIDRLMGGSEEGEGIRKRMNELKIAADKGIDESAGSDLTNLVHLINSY
Kind of experiment: UDP-Glo glucosyl transferase assay, purified enzyme. The note with it: for Activity: herbicide 0.500 mM, N-terminally his tagged, limit of detection about 0.001. The class given is biochemical. The protocol: Glucosyl transferase activity is assayed via measurement of acceptor substrate-dependent production of UDP from ultrapure UDP-glucose using the Promega UDP-Glo™ method and according to the manufacturer's instructions. Assays are run in 96 well microtiter plates.
Enzyme, typically at a stock concentration of ˜2 mg/ml is diluted to an appropriate concentration in 50 mM K^+ Hepes buffer at pH7.5 containing 0.5 mg/mL bovine serum albumin (BSA) and 5 ul aliquots of this diluted enzyme added to each well of a Perkin Elmer white ½ area 96 well plate. […] Assays are run for an appropriate time (usually 10 to 60 min) so that the amount of UDP formed lies within the most nearly linear part of the UDP standard curve and are stopped with the addition and mixing of 25 ul UDP-Glo™ detection reagent (prepared as described below). Plates are then incubated at room temperature for 60 minutes and then read in a luminescence plate reader (Perkin Elmer Envision 2130 Multilabel Reader). A UDP standard curve is run alongside each set of assays and reagent blank control assays run with DMSO in place of test herbicide. Typically, 300 pmol of UDP corresponds to a Relative Luminescence Unit (RLU) reading of about 1.5E7 and the response curve between 0 and 600 pmol is fitted to a polynomial function (see for example FIG. 2).
The UDP-Glo™ reagents are made up and used according to the manufacturer's instructions. Thus, Nucleotide Detection Buffer and ATP are combined to make nucleotide detection reagent (NDR) dispensed into aliquots and frozen to be freshly thawed before use.
Km and kcat values in respect of UDP-glucose are derived by carrying out experiments to measure initial rates over a suitable range of concentrations of UDP glucose out at a fixed near saturating concentration of acceptor substrate. Best fit values of kcat, Km and kcat/Km are obtained by direct fitting of the data to the Michaelis-Menten equation using Graphpad Prism™ software.
The glucosyl transferase activities of the mutant bx8-derived polypeptides expressed in these strains were initially assayed versus herbicide V as described in Example 1. The partly purified C-terminally his tagged w/t bx8 enzyme (SEQ ID No: 2) catalyzed glucosyl transfer to herbicide V at a low rate estimated to be less than about 0.002/s at 1 mM herbicide V which, because of a relatively high background of UDP formation in the DMSO (no substrate reagent control) was difficult to quantify using the luminescence assay. Thus further assays were run by LC/MS using which technique the formation of an O-beta glucosyl glucoside of herbicide V could more easily be confirmed but only quantified in a relative sense. Thus the various derivatives of C-terminally his tagged Zea mays bx8 SEQ ID No:2 were cloned and expressed in E. coli BL21 (DE3) as described in Example 1 and assayed in plates as crude extracts, as in Example 2, but monitored by LCMS rather than the luminescence assay.
Assays were carried out as described in Example 1. Partly purified C-terminally his tagged w/t Larkspur enzyme (SEQ ID No 10 with a 6 amino acid C-terminal tag) catalyzed glucosyl transfer to herbicide V at a rate estimated to be about 0.0065/s/pmol at 1 mM herbicide V. The similarly-tagged w/t bx-like enzymes from rye (SEQ ID No 11) and from wheat (SEQ ID No 4) were also active but only at levels close to the detection limit at ˜0.0015/s/pmol. Further examples of assay results from further experiments are depicted in Table 14. […]

Experiment [2] addresses T2, SEQ ID NO 20, mutant of Zea mays bx9 glucosyl transferase (Zea mays, UniProt B4G072, A281K/A334K/F21Y/L194V/M279F/S117V).
T2 construct: His tag (C); made in house
The class given is biochemical. The note with it: lower block, concentration printed only in upper block: V 0.300, VII 0.210; IV, VIII, XI, XXI, XX, XVIII, XVI, XV, XIV 0.200; others 1.000 mM.

T2 sequence (B4G072 whole entry F21Y/S117V/L194V/M279F/A281K/A334K): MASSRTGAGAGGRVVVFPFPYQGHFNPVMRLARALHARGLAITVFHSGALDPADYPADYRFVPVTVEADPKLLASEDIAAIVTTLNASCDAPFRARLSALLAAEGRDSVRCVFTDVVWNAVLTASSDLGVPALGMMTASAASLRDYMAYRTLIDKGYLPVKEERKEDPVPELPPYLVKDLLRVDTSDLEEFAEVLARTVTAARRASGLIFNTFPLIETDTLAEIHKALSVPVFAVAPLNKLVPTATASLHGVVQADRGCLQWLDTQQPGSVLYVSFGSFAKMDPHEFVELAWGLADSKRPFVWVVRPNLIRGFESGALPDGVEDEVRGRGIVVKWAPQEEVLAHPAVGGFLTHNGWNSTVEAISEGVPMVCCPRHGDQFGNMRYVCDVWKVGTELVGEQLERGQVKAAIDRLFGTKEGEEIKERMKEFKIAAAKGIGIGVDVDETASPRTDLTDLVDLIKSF

As to `Cc1cnc(N2C(=O)N(C)CC2O)cc1C(F)(F)F` (centres unmarked) [XVIII], the Activity in experiment [1] was 0.001 pmol/sec/pmol enzyme; in experiment [2], 1.141 pmol/sec/pmol enzyme.

Regarding `CN1CC(O)N(c2cc(C(F)(F)F)c(Cl)cn2)C1=O` (centres unmarked) [XI], the results for the Activity in experiment [1] and in experiment [2] were 0.001 pmol/sec/pmol enzyme and 1.046 pmol/sec/pmol enzyme, respectively.

`CON1C(=O)N(c2cc(C(F)(F)F)ccn2)C(O)[C@@H]1C` (some centres unmarked) [Compound VI] showed an Activity in experiment [1] of 0.000 pmol/sec/pmol enzyme.

`CN1CC(O)N(c2cc(C(F)(F)F)ccn2)C1=O` (centres unmarked) [Compound V]: the “rate of glucosyl transfer” value in experiment [1] (1 mM herbicide V, partly purified C-terminally his tagged enzyme) was “less than 0.002 /s”. The Activity in experiment [1] was found to be 0.000 pmol/sec/pmol enzyme; in experiment [2], 1.889 pmol/sec/pmol enzyme.

Source of the values: patent publication US20200270588A1, “GLUCOSYL TRANSFERASE POLYPEPTIDES AND METHODS OF USE” (Syngenta Participations AG, priority 2017, published 2020).
